Data reported in the supplement of paper PMC10307832.

What was measured:
Experiment in all cases: relative viability (nuclei count vs DMSO), 5 days (fraction); higher = more cells survive
Ibrutinib + Tozasertib = compound: C=CC(=O)N1CCC[C@@H](n2nc(-c3ccc(Oc4ccccc4)cc3)c3c(N)ncnc32)C1 [Ibrutinib] + Cc1cc(Nc2cc(N3CCN(C)CC3)nc(Sc3ccc(NC(=O)C4CC4)cc3)n2)n[nH]1 [Tozasertib] (partner 0.1 µM)
Method in brief: (§1)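 Each reported value is a median over duplicate plates. It expresses relative viability: treated-well nuclei count divided by vehicle-well nuclei count. Lung cancer cell lines in 1536-well plates were dosed by pin tool a day after seeding, alone with one drug or with a fixed anchor-drug dose plus five library-drug doses (not always all listed) in √10 steps, and nuclei were counted after 5 days.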

BMX-IN-1 + Foretinib = compound: C=CC(=O)Nc1cc(-n2c(=O)ccc3cnc4ccc(-c5ccc(NS(C)(=O)=O)cc5)cc4c32)ccc1C [BMX-IN-1] + COc1cc2c(Oc3ccc(NC(=O)C4(C(=O)Nc5ccc(F)cc5)CC4)cc3F)ccnc2cc1OCCCN1CCOCC1 [Foretinib] (partner 0.25 µM)
Method in brief: as §1

BMX-IN-1 + Pictilisib = compound: C=CC(=O)Nc1cc(-n2c(=O)ccc3cnc4ccc(-c5ccc(NS(C)(=O)=O)cc5)cc4c32)ccc1C [BMX-IN-1] + CS(=O)(=O)N1CCN(Cc2cc3nc(-c4cccc5[nH]ncc45)nc(N4CCOCC4)c3s2)CC1 [Pictilisib] (partner 1 µM)
Method in brief: as §1

BMX-IN-1 + Tozasertib = compound: C=CC(=O)Nc1cc(-n2c(=O)ccc3cnc4ccc(-c5ccc(NS(C)(=O)=O)cc5)cc4c32)ccc1C [BMX-IN-1] + Cc1cc(Nc2cc(N3CCN(C)CC3)nc(Sc3ccc(NC(=O)C4CC4)cc3)n2)n[nH]1 [Tozasertib] (partner 0.1 µM)
Method in brief: as §1

How did the relative viability (Ibrutinib + Tozasertib; first compound 0.005 µM) turn out when SK-MES-1 was run?
Its relative viability is 0.997.

What about the relative viability (Ibrutinib + Tozasertib; first compound 0.01581 µM) of the same cell line?
Its relative viability is 0.872.

What about the relative viability (Ibrutinib + Tozasertib; first compound 0.05 µM) of the same cell line?
Its relative viability is 0.965.

And the relative viability (Ibrutinib + Tozasertib; first compound 0.1581 µM)?
The relative viability was 1.03.

What about the relative viability (Ibrutinib + Tozasertib; first compound 0.5 µM) of the same cell line?
The relative viability was 0.669.

And the relative viability (BMX-IN-1 + Foretinib; first compound 0.02 µM)?
The relative viability was 0.877.

And the relative viability (BMX-IN-1 + Foretinib; first compound 0.2 µM)?
The relative viability was 1.02.

What about the relative viability (BMX-IN-1 + Foretinib; first compound 0.6325 µM) of the same cell line?
Its relative viability is 0.967.

What about the relative viability (BMX-IN-1 + Foretinib; first compound 2 µM) of the same cell line?
The relative viability was 0.728.

And the relative viability (BMX-IN-1 + Pictilisib; first compound 0.02 µM)?
The relative viability was 0.345.

What about the relative viability (BMX-IN-1 + Pictilisib; first compound 0.2 µM) of the same cell line?
Its relative viability is 0.383.

What about the relative viability (BMX-IN-1 + Pictilisib; first compound 0.6325 µM) of the same cell line?
Its relative viability is 0.414.

What about the relative viability (BMX-IN-1 + Pictilisib; first compound 2 µM) of the same cell line?
The relative viability was 0.344.

And the relative viability (BMX-IN-1 + Tozasertib; first compound 0.02 µM)?
The relative viability was 1.12.

What about the relative viability (BMX-IN-1 + Tozasertib; first compound 0.2 µM) of the same cell line?
The relative viability was 1.15.

And the relative viability (BMX-IN-1 + Tozasertib; first compound 0.6325 µM)?
The relative viability was 1.07.

And the relative viability (BMX-IN-1 + Tozasertib; first compound 2 µM)?
The relative viability was 0.884.
